In patent US20070207195A1, “Genetic Screening for Polymorphisms in Human Genes that Increase or Decrease Sensitivity to Toxic Agents” (Applied Genetics Incorporated Dermatics, priority 2004, published 2007):

Tested on: NCI screening panel tumor cell lines
Test: Growth inhibition (GI50, sulforhodamine B) in NCI tumor cell line panel, correlated with polymorphic genotype
Assay type: cell-based, human
[1] = NOS3 t-786c, ratio of average GI(50) of genotypes, 48 h drug incubation

Method: The method tests a toxic agent over five 10-fold dilutions in cells for 48 hrs in a 5% CO2 atmosphere and 100% humidity. For most agents the highest concentration was 0.1 mM, but for the standard agents the highest well concentration depended on experience with the agent. DNA purified from each cell line was analyzed for SNPs at the alleles of interest. […] Cell suspensions were added to a microtiter plate and incubated for 24 h at 37° C. The drugs were added at concentrations spanning five 10-fold dilutions, and incubated for 48 h. The cells were assayed by staining the cells with sulforhodamine B, and a plate reader was used to read the optical densities. The results are expressed as a GI50 value, which is the drug concentration producing 50% growth inhibition, with correction for the cell count at time zero. […] The drug sensitivities for the polymorphs of each gene of interest were calculated in the following manner. For each drug, the average GI(50) for each polymorphic genotype was calculated, e.g., the GI(50) for the homozygous dominant, heterozygous and homozygous variant genotypes. Then the GI(50)s for all the drugs were analyzed among genotypes by nonparametric Friedman Repeated Measures ANOVA. In this test the GI(50) is only used for ranking among the genotypes for each drug, so errors due to sample size among genotypes are minimized. Statistical analysis of each pair of polymorphic genotypes was done by the Tukey-Kramer Multiple Comparison Test. Analysis of relative sensitivity of the genotypes to an individual drug was by parametric ANOVA. To determine the relative sensitivity of each pair of genotypes, the relative sensitivity to each drug was calculated by dividing the GI(50) of one genotype by the GI(50) of the other. The relative sensitivities for all the drugs were then averaged. For each pair of genotypes, we also calculated the percent of drugs in which one genotype was more sensitive than the other. […]

Row | Compound | survival of NOS3 t-786c homozygous variant genotype relative to heterozygous genotype [1] | survival of NOS3 t-786c homozygous variant genotype relative to homozygous dominant genotype [1] | resistance of XRCC1 R399Q homozygous variant genotype versus homozygous dominant genotype (XRCC1 R399Q, single-drug analysis, p=0.045 Bonferroni adjusted multiple comparison test)
1 | Nc1nc2nc[nH]c2c(=S)[nH]1 [thioguanine, Thioguanine] | 35% | 68% | –
2 | CC[C@]1(O)C[C@@H]2CN(CCc3c([nH]c4ccccc34)[C@@](C(=O)OC)(c3cc4c(cc3OC)N(C)[C@H]3[C@@](O)(C(=O)OC)[C@H](OC(C)=O)[C@]5(CC)C=CCN6CC[C@]43[C@@H]65)C2)C1 [vinblastine] | – | – | significantly more resistant
